Measurements as given in patent US20240207302A1, “ANTIVIRAL COMPOUNDS, METHODS FOR THE MANUFACTURING OF COMPOUNDS, ANTIVIRAL PHARMACEUTICAL COMPOSITION, USE OF THE COMPOUNDS AND METHOD FOR THE ORAL TREATMENT OF CORONAVIRUS INFECTION AND RELATED DISEASES THEREOF” (priority 2021, published 2024).
Like-named read-outs stand apart in the source and are kept apart here.

What was measured:
SARS-COV-2 [1] = test: SARS-COV-2 viral RNA synthesis in Vero cells (real time RT-PCR); format: cell-based; settings: Severe acute respiratory syndrome coronavirus 2; Vero (MOI 0.01 24 h); read-out: EC50
SARS-COV-2 [2] = test: SARS-COV-2 viral RNA synthesis in Calu-3 cells (real time RT-PCR); format: cell-based; settings: 1.0 μM
[3] = Cytotoxicity assay (XTT) in Huh-7 cells; format: cell-based; settings: human
Description: In parallel, cytotoxicity assays were performed. Monolayers of 1.5×10^4 cells in 96-well plates were treated for 3 days with various concentrations (semi-log dilutions from 1,000 to 10 μM) of the antiviral drugs. Then, 5 mg/mL 2,3-bis-(2-methoxy-4-nitro-5-sulfophenyl)-2H-tetrazolium-5-carboxanilide (XTT) in DMEM was added to the cells in the presence of 0.01% of N-methyl dibenzopyrazine methyl sulfate (PMS).

SARS-COV-2 [4] = test: Combination with SARS-COV-2 nsp14 (exonuclease) inhibitors in Calu-3 cells, infectious virus titers; format: cell-based
SARS-COV-2 VoC gamma = format: in vivo, mice
[5] = system: murine hepatitis virus (MHV); format: in vivo, mice; settings: DAC 60 mg/kg/day
[6] = Maximum tolerated dose (OECD 425) and tolerability; format: in vivo; settings: mice
Description: The present assay was designed to investigate the safety and tolerability of MB-905. For the MTD assay (OECD 425), mice (3 animals of each sex/group) were divided into five experimental groups and the up and down procedure was applied to which 175 mg/kg was used as the first dose. […] Mortality, morbidity, body weight, food consumption, general and detailed clinical signs of toxicity were evaluated. At necropsy, vital (brain, heart, liver, spleen, kidneys and adrenal glands) and reproductive organs (ovaries, testicles and epididymis) were carefully removed, weighed and stored for further analysis (if necessary).

[7] = Toxicokinetics in the 28-day study; format: in vivo, mice; settings: for AUC / Cmax / Tmax / half-life: CD1, mouse, in vivo, po
[8] = system: Salmonella typhimirium TA 97a, TA 98, TA 100, TA 102 and TA 1535; test: Bacterial reverse mutation (Ames) test
[9] = Cardiovascular safety pharmacology by telemetry; settings: rats; 50 or 250 mg/Kg oral, single or repeated (7 days)
Description: Data are presented as mean±S.E.M. Statistical analysis was performed by two-way ANOVA followed by Bonferroni post hoc test. n=4-6 animals per group.

[10] = Severe acute respiratory syndrome coronavirus 2, Calu-3, alone or in combination as labelled
[11] = 140 mg/kg/day alone and in combination with DTG
[12] = 140 mg/kg/day, vs untreated animals
[13] = female, 10 mg/kg, female mice, 10 mg/kg, Day 0
[14] = female, 10 mg/kg, female mice, 10 mg/kg, Day 28
[15] = female, 80 mg/kg, female mice, 80 mg/kg, Day 0
[16] = female, 80 mg/kg, female mice, 80 mg/kg, Day 28
[17] = female, 250 mg/kg, female mice, 250 mg/kg, Day 0
[18] = female, 250 mg/kg, female mice, 250 mg/kg, Day 28
[19] = male, 10 mg/kg, male mice, 10 mg/kg, Day 0
[20] = male, 10 mg/kg, male mice, 10 mg/kg, Day 28
[21] = male, 80 mg/kg, male mice, 80 mg/kg, Day 0
[22] = male, 80 mg/kg, male mice, 80 mg/kg, Day 28
[23] = male, 250 mg/kg, male mice, 250 mg/kg, Day 0
[24] = male, 250 mg/kg, male mice, 250 mg/kg, Day 28

In the case of c1coc(CNc2ncnc3[nH]cnc23)c1 [MB-905, kinetin], the EC50 (SARS-COV-2 [1]) is reported as 5 µM, the “inhibition of SARS-COV-2 RNA synthesis” value (SARS-COV-2 [2]) is reported as “best profiles” and the CC50 at 3 days [3] is reported as 560 µM. The EC50 (SARS-COV-2 [4]; [10]) was 0.3 µM, the EC90 (SARS-COV-2 [4]; [10]) was 8 µM and the “effect of co-treatment with raltegravir or dolutegravir (iEXO) on inhibition of SARS-COV-2” value (SARS-COV-2 [4]; calu-3, drug 10 μM, raltegravir or dolutegravir 5 μM) was “synergistic”. For the same molecule, the body weight (SARS-COV-2 VoC gamma; [11]) was “sustain their masses beyond the threshold of euthanasia”, the overall clinical scores (SARS-COV-2 VoC gamma; [11]) was “improved” and the “virus RNA levels in the lungs” value (SARS-COV-2 VoC gamma; 140 mg/kg/day with or without DTG) was “did not alter”. For the same molecule, the infectious titers (SARS-COV-2 VoC gamma; 140 mg/kg/day with or without DTG, BAL) was “decreased significantly”, the “IL-6 in BAL” value (SARS-COV-2 VoC gamma; [12]) was “reduced” and the “KC in BAL” value (SARS-COV-2 VoC gamma; [12]) was “reduced”. For the same molecule, the “TNF-α in BAL” value (SARS-COV-2 VoC gamma; [12]) was “reduced”, the “inflammatory cells counts in BAL” value (SARS-COV-2 VoC gamma; [12]) was “reduced” and the survival (SARS-COV-2 VoC gamma; 70 mg/kg/day oral with DTG) was “Higher survival rates”. The survival (SARS-COV-2 VoC gamma; 140 mg/kg/day oral, combined or not with DTG) was “Higher survival rates”, the lung necrosis (SARS-COV-2 VoC gamma; alone or combined with DTG) was “reduced” and the weight recovery ([5]; MB-905 250 mg/kg/day) was “did not allow complete weight recovery”. The “inflammatory cells in the respiratory tract” value ([5]; day 11, MB-905 250 mg/kg/day) was “less inflammatory cells”, the mortality ([5]; oral gavage daily from day 2, MB-905 250 mg/kg/day) was “reduced the mice mortality by half” and the NOAEL at 7 days ([6]; both sexes, mouse, in vivo, oral, MTD study) was 550 mg/kg. The clinical signs ([6]; 1,150 mg/kg oral) was “piloerection, reduced touch response, prostration, loss of grasping strength, decrease in body temperature and death”, the “death after compound administration, time” value ([6]; 1,150 mg/kg oral) was no more than 4 h and the clinical signs ([6]; 175, 550 and 850 mg/kg oral) was “did not result in any observable clinical signs indicating toxicity”. For the same molecule, the morbidity and mortality ([6]; 175, 550 and 850 mg/kg oral) was “did not result in any signs indicative of toxicity”, the “body weight change and food consumption” value ([6]; single 175, 550 or 850 mg/kg) was “not observed any significant change” and the organs weight ([6]; single oral 175, 550 or 850 mg/kg) was “did not show any changes”. The AUC [7, 13] was 422 ng·h/mL, the Cmax [7, 13] was 288 ng/mL and the Tmax [7, 13] was 15 min. For the same molecule, the AUC [7, 14] was 56.6 ng·h/mL, the Cmax [7, 14] was 95 ng/mL and the Tmax [7, 14] was 15 min. It also gave an AUC [7, 15] of 5010 ng·h/mL, a Cmax [7, 15] of 747 ng/mL and a Tmax [7, 15] of 15 min. The half-life [7, 15] was 1550 min, the AUC [7, 16] was 1590 ng·h/mL and the Cmax [7, 16] was 464 ng/mL. It also gave a Tmax [7, 16] of 15 min, a half-life [7, 16] of 65.4 min and an AUC [7, 17] of 4910 ng·h/mL. It also gave a Cmax [7, 17] of 898 ng/mL, a Tmax [7, 17] of 15 min and a half-life [7, 17] of 185 min. For the same molecule, the AUC [7, 18] was 2080 ng·h/mL, the Cmax [7, 18] was 716 ng/mL and the Tmax [7, 18] was 15 min. It also gave a half-life [7, 18] of 155 min, an AUC [7, 19] of 91 ng·h/mL and a Cmax [7, 19] of 99 ng/mL. For the same molecule, the Tmax [7, 19] was 15 min, the AUC [7, 20] was 121 ng·h/mL and the Cmax [7, 20] was 144 ng/mL. It also gave a Tmax [7, 20] of 15 min, an AUC [7, 21] of 1020 ng·h/mL and a Cmax [7, 21] of 598 ng/mL. It also gave a Tmax [7, 21] of 15 min, a half-life [7, 21] of 72.6 min and an AUC [7, 22] of 1170 ng·h/mL. The Cmax [7, 22] was 750 ng/mL, the Tmax [7, 22] was 15 min and the AUC [7, 23] was 4480 ng·h/mL. It also gave a Cmax [7, 23] of 793 ng/mL, a Tmax [7, 23] of 60 min and an AUC [7, 24] of 1130 ng·h/mL. For the same molecule, the Cmax [7, 24] was 588 ng/mL, the Tmax [7, 24] was 15 min and the half-life [7, 24] was 91.8 min. For the same molecule, the “accumulation (AUCall and Cmax day 0 vs day 28)” value ([7]; mice, males and females) was “no there was an accumulation”, the Mutagenicity ([8]; TA 97a +S9, 8 μg/mL) was “−” and the Mutagenicity ([8]; TA 97a +S9, 40 μg/mL) was “−”. For the same molecule, the Mutagenicity ([8]; TA 97a +S9, 200 μg/mL) was “−”, the Mutagenicity ([8]; TA 97a +S9, 1,000 μg/mL) was “−” and the Mutagenicity ([8]; TA 97a +S9, 5,000 μg/mL) was “−”. For the same molecule, the Mutagenicity ([8]; TA 97a −S9, 8 μg/mL) was “−”, the Mutagenicity ([8]; TA 97a −S9, 40 μg/mL) was “−” and the Mutagenicity ([8]; TA 97a −S9, 200 μg/mL) was “−”. The Mutagenicity ([8]; TA 97a −S9, 1,000 μg/mL) was “−”, the Mutagenicity ([8]; TA 97a −S9, 5,000 μg/mL) was “−” and the Mutagenicity ([8]; TA 98 +S9, 8 μg/mL) was “−”. For the same molecule, the Mutagenicity ([8]; TA 98 +S9, 40 μg/mL) was “−”, the Mutagenicity ([8]; TA 98 +S9, 200 μg/mL) was “−” and the Mutagenicity ([8]; TA 98 +S9, 1,000 μg/mL) was “−”. The Mutagenicity ([8]; TA 98 +S9, 5,000 μg/mL) was “−”, the Mutagenicity ([8]; TA 98 −S9, 8 μg/mL) was “−” and the Mutagenicity ([8]; TA 98 −S9, 40 μg/mL) was “−”. The Mutagenicity ([8]; TA 98 −S9, 200 μg/mL) was “−”, the Mutagenicity ([8]; TA 98 −S9, 1,000 μg/mL) was “−” and the Mutagenicity ([8]; TA 98 −S9, 5,000 μg/mL) was “−”. The Mutagenicity ([8]; TA 100 +S9, 8 μg/mL) was “−”, the Mutagenicity ([8]; TA 100 +S9, 40 μg/mL) was “−” and the Mutagenicity ([8]; TA 100 +S9, 200 μg/mL) was “−”. The Mutagenicity ([8]; TA 100 +S9, 1,000 μg/mL) was “−”, the Mutagenicity ([8]; TA 100 +S9, 5,000 μg/mL) was “−” and the Mutagenicity ([8]; TA 100 −S9, 8 μg/mL) was “−”. The Mutagenicity ([8]; TA 100 −S9, 40 μg/mL) was “−”, the Mutagenicity ([8]; TA 100 −S9, 200 μg/mL) was “−” and the Mutagenicity ([8]; TA 100 −S9, 1,000 μg/mL) was “−”. For the same molecule, the Mutagenicity ([8]; TA 100 −S9, 5,000 μg/mL) was “−”, the Mutagenicity ([8]; TA 102 +S9, 8 μg/mL) was “−” and the Mutagenicity ([8]; TA 102 +S9, 40 μg/mL) was “−”. The Mutagenicity ([8]; TA 102 +S9, 200 μg/mL) was “−”, the Mutagenicity ([8]; TA 102 +S9, 1,000 μg/mL) was “−” and the Mutagenicity ([8]; TA 102 +S9, 5,000 μg/mL) was “−”. For the same molecule, the Mutagenicity ([8]; TA 102 −S9, 8 μg/mL) was “−”, the Mutagenicity ([8]; TA 102 −S9, 40 μg/mL) was “−” and the Mutagenicity ([8]; TA 102 −S9, 200 μg/mL) was “−”. For the same molecule, the Mutagenicity ([8]; TA 102 −S9, 1,000 μg/mL) was “−”, the Mutagenicity ([8]; TA 102 −S9, 5,000 μg/mL) was “−” and the Mutagenicity ([8]; TA 1535 +S9, 8 μg/mL) was “−”. For the same molecule, the Mutagenicity ([8]; TA 1535 +S9, 40 μg/mL) was “−”, the Mutagenicity ([8]; TA 1535 +S9, 200 μg/mL) was “−” and the Mutagenicity ([8]; TA 1535 +S9, 1,000 μg/mL) was “−”. For the same molecule, the Mutagenicity ([8]; TA 1535 +S9, 5,000 μg/mL) was “−”, the Mutagenicity ([8]; TA 1535 −S9, 8 μg/mL) was “−” and the Mutagenicity ([8]; TA 1535 −S9, 40 μg/mL) was “−”. For the same molecule, the Mutagenicity ([8]; TA 1535 −S9, 200 μg/mL) was “−”, the Mutagenicity ([8]; TA 1535 −S9, 1,000 μg/mL) was “−” and the Mutagenicity ([8]; TA 1535 −S9, 5,000 μg/mL) was “−”. The “mutagenic activity in the reverse mutation test” value ([8]; all strains, absence and presence of S9) was “no mutagenic activity” and the “cardiovascular hemodynamic parameters (systolic, diastolic, mean blood pressure, heart rate)” value [9] was “did not induces any changes”.
